Assay [1] addresses calcineurin binding to NFAT1 (Homo sapiens, UniProt Q08209). Nature of the assay: 125I-calcineurin binding to GST-NFAT1(1-400) immobilized on glutathione-Sepharose beads. The following applies: at concentrations up to 100 μM.
Assay [2] has as its target T1, dephosphorylation of NFAT1 by calcineurin (Homo sapiens, UniProt Q08209). Nature of the assay: in vitro dephosphorylation of NFAT1(1-460)-GFP by calcineurin in HeLa cytosolic extracts, Western blotting. The format is biochemical. As to the method:
Samples were resolved by SDS-PAGE and dephosphorylation was assessed with anti-HA antibody 12CA5. […] Slightly higher concentrations of the peptides were required to inhibit the in vitro dephosphorylation than were required to inhibit NFAT-calcineurin binding, presumably due to some degradation of the peptides by enzymes present in the cell extracts.
In general terms: Immunoblotting shows a protein as a band on a membrane.

In assay [3] the target is T1, dephosphorylation of NFAT1 by calcineurin. Nature of the assay: dephosphorylation of HA-NFAT1(1-460)-GFP in HEK-293 cytosolic extracts by calcineurin/calmodulin. The assay is classed as biochemical. The following applies: wild type 13-mer 100 μM or 400 μM; mutant 400 μM; calcineurin/calmodulin 100 nM to 900 nM. How it is done: (§1) The HA-tagged N-terminal domains of NFAT1 and NFAT4 were expressed as the fusion proteins HA-NFAT1(1-460)-GFP and HA-NFAT4(1-407)-GFP in HEK-293 cells. […] Dephosphorylation was allowed to proceed for 30 min at 30° C., and samples were analyzed by SDS-PAGE and Western blotting with anti-HA antibody.

Assay [4] concerns the target dephosphorylation of NFAT4 by calcineurin (Homo sapiens, UniProt Q08209). Nature of the assay: dephosphorylation of HA-NFAT4(1-407)-GFP in HEK-293 cytosolic extracts by calcineurin/calmodulin. The assay is classed as biochemical. The following applies: wild type 13-mer 100 μM or 400 μM; mutant 400 μM; calcineurin/calmodulin 100 nM to 900 nM. How it is done:
as §1

Assay [5] addresses calcineurin binding to GST-NFAT1 (Homo sapiens, UniProt Q08209). Nature of the assay: binding of activated calcineurin to GST-NFAT1(1-415), glutathione-Sepharose collection and Western blotting.
The target in assay [6] is T2, calcineurin (Homo sapiens, UniProt Q08209). The assay is described as follows: in vitro dephosphorylation of recombinant 32P-labelled RIIα protein by calcineurin. The assay is classed as biochemical.
Description: Dephosphorylation was allowed to proceed during 45 min at 30° C., samples were resolved by SDS-PAGE, and the gel was stained with Coomasie Brilliant Blue, dried, and autoradiographed. A phosphorimager was used to quantitate the level of ^32P in each lane.
Assay [7] addresses T2, calcineurin. Nature of the assay: dephosphorylation of GST-Tau protein by calcineurin. The format is biochemical.
The target in assay [8] is T3, dephosphorylation of NFAT by calcineurin (Homo sapiens, UniProt Q08209). The assay is described as follows: in vitro dephosphorylation of NFAT1 in C1.7W2 T cell lysates by recombinant calcineurin. The assay is classed as biochemical. The following applies: 500 nM calcineurin, 600 nM calmodulin, 30 minutes at 30° C.; INCA2 at micromolar concentrations.
Description: Dephosphorylation produces a change in mobility that is visible as a shift in the immunostained NFAT band.
Cell lysates were made from C1.7W2 T cells washed in PBS/2 mM EGTA, 10 mM iodoacetamide, collected by centrifugation, and resuspended at 80×10^6 cells/ml in chilled lysis buffer consisting of 10 mM KAc, 2 mM MgAc2, 2 mM EGTA, 100 mM HEPES/NaHEPES pH 7.4, 0.2% NP-40, 10 mM iodoacetamide, 2 mM PMSF, 20 μg/ml aprotinin, and 50 μM leupeptin. After incubation for 10 minutes on wet ice, the nuclei and cell debris were pelleted in a refrigerated microcentrifuge at 4° C. by centrifugation for 5 minutes at 13,500 rpm, and the resulting supernatant recovered with a prechilled pipette tip, rapidly frozen using a dry ice/ethanol bath, and stored at −80° C.
The dephosphorylation reaction was initiated by addition of 0.6 μl lysate per 20 μl reaction.
Assay [9] concerns the target T4, recombinant human calcineurin catalytic domain, calcineurin(2-347) (Homo sapiens, UniProt Q08209, L343A/M347D/Y341S).
T4 construct: GST (N, cleaved yes); made in house; host or cells: E. coli strain DH5α
Nature of the assay: fluorescence polarization competition assay, displacement of OG-VIVIT from calcineurin. The assay is classed as binding. Particulars: for displacement of OG-VIVIT from calcineurin: at high concentrations, 1 μM calcineurin, 60 nM OG-VIVIT; for IC50: calcineurin-VIVIT peptide interaction, read-out: Estimated IC50. As to the method: Samples were analyzed as described in the preceding paragraph, and the resulting polarization data were plotted against the concentration of unlabelled VIVIT peptide, as shown in FIG. 8B.
The library stocks were dissolved at a nominal concentration of 10 mM in DMSO, and formatted for convenient robotic transfer on 384-well plates at the Institute of Chemistry and Cell Biology, Harvard Medical School. To initiate the competition assay, 40 nl volumes were pin-transferred from each well of a library stock plate to the corresponding wells of an assay plate, utilizing a robotic device. After a minimum 10 min incubation at room temperature to allow the binding to reach equilibrium, fluorescence polarization data were collected employing an Analyst plate reader (Molecular Devices).
Stocks of candidate inhibitor compounds and their structural analogues were purchased from ChemBridge or Asinex. The structure and purity of individual compounds were verified by ^1H NMR, mass spectrometry, or thin-layer chromatography. […] INCA1, INCA2, and INCA6 can be represented generally as follows: […]

The target of assay [10] is calcineurin (Homo sapiens, UniProt Q08209, L343A/M347D/Y341S). Nature of the assay: 1H NMR titration spectroscopy binding experiments. Particulars: 10 μM compound, 20 μM calcineurin, 25° C., buffered D2O. As to the method: T2-filtered ^1H NMR spectra were obtained on a Bruker Avance 600 instrument with CryoPhobe using low-power presaturation of residual water. Preacquisition delays included up to five spin echos to suppress fast-relaxing broad protein resonances and were times to yield in-phase signals for J-coupled spins. Chemical shifts were referenced to internal standard 5 μM 2,2-dimethylsilapentane-5-sulfonic acid (DSS).

Assay [11] concerns the target T2, calcineurin. The assay is described as follows: dephosphorylation of 32P-RII phosphopeptide by calcineurin. The assay is classed as biochemical. The following applies: 32P-RII phosphopeptide 100 μM, calcineurin 100 nM; peptides 30 μM to 400 μM; FK506/FKBP12 10 μM/10 μM. How it is done:
The dephosphorylation reaction was allowed to proceed for 30 min at 30° C. after which the reaction was stopped by addition of excess 0.1% trichloroacetic acid, substrate peptide was removed by adsorption onto a cation exchange resin (AG50W; BioRad Laboratories, Hercules, Calif.), and released ^32P label in the supernatant was measured in a liquid scintillation counter.

The target of assay [12] is T3, dephosphorylation of NFAT by calcineurin. Nature of the assay: calcineurin-mediated dephosphorylation of HA-NFAT1(1-460)-GFP in HeLa cell lysates. Particulars: 200 nM calcineurin, 600 nM calmodulin, 30 min at 30 C.; peptide amounts as in FIG. 5B. The format is biochemical.
Description: The phosphorylation status of NFAT was evaluated by SDS-polyacrylamide gel electrophoresis and Western blotting with anti-HA antibody 12CA5.
For assay [13], the target named is T2, calcineurin. Nature of the assay: calcineurin phosphatase assay with phosphorylated RII peptide, Malachite green detection. The format is biochemical. Particulars: 100 μM INCA compound or 100 μM VIVIT peptide; 6.8 nM calcineurin, 15 min at 25° C.
Assay [14] relates to NFAT-dependent reporter gene (3×NFAT-Luc) in Jurkat cells. The assay is described as follows: 3×NFAT-Luc luciferase reporter in transfected Jurkat cells. The assay is classed as cell-based, human. Particulars: GFP fusion expressed in Jurkat cells; PMA and ionomycin 6 hours. On the technique in general: Reporter assays use an easily measured gene product as a stand-in for the process of interest.
Description: Twenty-four hours after transfection, cells were left unstimulated, stimulated for 6 hours with 20 nM phorbol 12-myristate 13-acetate (PMA) and 1 μM ionomycin, or stimulated for 6 hours with 0.2 μg/ml immobilized anti-CD3 (HIT3a, Pharmingen) and 0.5 μg/ml soluble anti-CD28 (CD28.2, Pharmingen). CsA was added 30 min before the stimuli. Luciferase activity in cell lysates was measured using a luciferase assay system (Promega) and was normalized to the concentration of hGH in the cell culture medium determined with a radioimmunometric assay kit (Hybritech).
In the right panel are data from Jurkat cells that had been cotransfected with a 3×NFAT-Luc reporter plasmid and with expression plasmids encoding murine NFAT1, human NFAT2, or human NFAT4 as indicated. Twenty-four hours after transfection, cells were left unstimulated (Unstimulated; open bars) or were stimulated for 6 hours with PMA and ionomycin (PMA+iono; solid bars), cell lysates were prepared, and luciferase activity attributable to endogenous NFAT (Endog.) or to overexpressed NFAT proteins was measured.
Twenty-four hours after transfection, cells were left untreated (open bars) or were stimulated for 6 hours with PMA and ionomycin (solid bars).

Where [15] appears, read: peptide concentrations in the range from 16 μM to 400 μM, calcineurin 200 nM, calmodulin 600 nM, 30 min at 30° C.

Consider “CM2 mutant 26-mer peptide: 26-mer control peptide with R112 to A, E114 to A, T116 to A substitutions and appended tyrosine (KPAGASGPSPAIAIAPSHELMQAGGY) [reference compound]”, for which the “inhibition of the NFAT1-calcineurin interaction” value in assay [1] is “did not inhibit”. Also, the “inhibition of dephosphorylation of NFAT1 by calcineurin in vitro” value (from here on “inhibition … by calcineurin in vitro”) in assay [2] (only at concentrations above 400 μM) is listed as “only marginally inhibitory”. For the same compound, the “inhibition of dephosphorylation of HA-NFAT1(1-460)-GFP” value in [3] is given as “little or no inhibition”. In [4], the “inhibition of dephosphorylation of HA-NFAT4(1-407)-GFP” value is recorded as “little or no inhibition”. In addition, the “inhibition of calcineurin binding to GST-NFAT1” value in assay [5] (peptide 100 μM) is on record as “did not inhibit”.
In the case of `O=P([O-])([O-])OP(=O)([O-])[O-].[Na+].[Na+].[Na+].[Na+]` [sodium pyrophosphate, reference compound], in assay [6] (sodium pyrophosphate 20 mM, CsA/cyclophilin […] μM/5 μM, FK506/FKBP12 4 μM/4 μM), the “inhibition of dephosphorylation of RIIα protein by control inhibitors” value is reported as “efficiently inhibited”. Further, the “inhibition of dephosphorylation of GST-Tau protein by control inhibitors” value in assay [7] (sodium pyrophosphate 10 mM, CsA/cyclophilin […] μM/5 μM) is “efficiently inhibited”. Moreover, in assay [8], the “dephosphorylation of NFAT by calcineurin in vitro” value is “no dephosphorylation”.
In the case of `CC(=O)C(C(C)=O)C1=C(Cl)C(=O)C(=O)c2c(C(=O)c3ccccc3)coc21` [INCA1], in assay [9], the Ki (as a rule, a measure of affinity in units of concentration, obtained from inhibition or displacement) lay in the range of 500 to 2000 nM; the “displacement of OG-VIVIT from calcineurin” value is “complete”; the IC50 (as a rule, the point on the concentration scale where inhibition reaches its midpoint) is 1000 nM. The “binding to calcineurin in the absence of VIVIT peptide” value in assay [10] is “direct molecular interaction”.
For `CC[C@H](C)[C@H](NC(=O)[C@H](CCCNC(=N)N)NC(=O)[C@@H]1CCCN1C(=O)[C@H](CO)NC(=O)[C@@H]1CCCN1C(=O)CNC(=O)[C@@H](N)CO)C(=O)N[C@@H](CCC(=O)O)C(=O)N[C@H](C(=O)N[C@H](C(=O)N1CCC[C@H]1C(=O)N[C@@H](CO)C(=O)N[C@@H](Cc1c[nH]cn1)C(=O)O)[C@@H](C)O)[C@@H](C)CC` [wild type 13-mer peptide], in assay [2] (setting [15]), the “inhibition … by calcineurin in vitro” value is “inhibited”. The “inhibition of dephosphorylation of the RII peptide by calcineurin” value in assay [11] is listed as “Neither of the SPRIEITPS peptides inhibited”. For the same compound, the “inhibition of dephosphorylation of HA-NFAT1(1-460)-GFP” value in assay [3] is recorded as “inhibited dephosphorylation”. For the same compound, the “inhibition of dephosphorylation of HA-NFAT4(1-407)-GFP” value in [4] was “inhibited dephosphorylation”. The “inhibition of the binding of activated calcineurin to GST-NFAT1” value in assay [5] (200 nM calcineurin, 600 nM calmodulin, 2 mM CaCl2, peptide amounts as in FIG. 5A) is reported as “inhibited”. Further, the “inhibition of NFAT dephosphorylation” value in [12] is recorded as “effective”.
`O=C1C(Cl)=C(Cl)C(=NS(=O)(=O)c2ccccc2)c2ccccc21` [INCA2]: in assay [9], the Ki was 100 to 500 nM, the “displacement of OG-VIVIT from calcineurin” value is “complete” and the IC50 was 3000 nM. In addition, in assay [10], the “binding to calcineurin in the absence of VIVIT peptide” value is reported as “direct molecular interaction”. For the same compound, the “dephosphorylation of NFAT by calcineurin in vitro” value in assay [8] is reported as “blocked”. Further, the “release of free phosphate from RII phosphopeptide” value in assay [13] is “not affected”.
With `CC[C@H](C)[C@H](NC(=O)[C@H](CCCNC(=N)N)NC(=O)[C@@H]1CCCN1C(=O)[C@H](CO)NC(=O)[C@@H]1CCCN1C(=O)CNC(=O)[C@H](CO)NC(=O)[C@H](C)NC(=O)CNC(=O)[C@H](C)NC(=O)[C@@H]1CCCN1C(=O)[C@@H](N)CCCCN)C(=O)N[C@@H](CCC(=O)O)C(=O)N[C@H](C(=O)N[C@H](C(=O)N1CCC[C@H]1C(=O)N[C@@H](CO)C(=O)N[C@@H](Cc1c[nH]cn1)C(=O)N[C@@H](CCC(=O)O)C(=O)N[C@@H](CC(C)C)C(=O)N[C@@H](CCSC)C(=O)N[C@@H](CCC(N)=O)C(=O)N[C@@H](C)C(=O)NCC(=O)NCC(=O)N[C@@H](Cc1ccc(O)cc1)C(=O)O)[C@@H](C)O)[C@@H](C)CC` [wild type 26-mer peptide], the “inhibition of dephosphorylation of NFAT1” value in assay [2] (500 μM peptide) is on record as “fully inhibited”. Moreover, the “inhibition … by calcineurin in vitro” value in assay [2] (setting [15]) is recorded as “inhibited”. Further, the “inhibition of dephosphorylation of the RII peptide by calcineurin” value in assay [11] is on record as “Neither of the SPRIEITPS peptides inhibited”. Also, the “inhibition of dephosphorylation of RIIα protein” value in [6] (peptide 20 μM and 100 μM, calcineurin 200 nM, 45 min at 30° C.) is reported as “did not inhibit”. For the same compound, the inhibition – broadly, the share of the control response that was lost under treatment – at 500 µM turned out to be 18% in [6] (peptide 500 μM) and 10% in assay [7] (read-out: inhibition of dephosphorylation of GST-Tau protein by calcineurin, peptide 500 μM). For the same compound, in [7] (peptide 20 μM and 100 μM, calcineurin 200 nM, 90 min at 30° C.), the “inhibition of dephosphorylation of GST-Tau protein by calcineurin” value is listed as “not inhibited”.
As for “GFP-SPRIEIT: GFP-SPRIEIT fusion protein, expression vector previously described (Aramburu et al 1998)”, the “block of induced luciferase expression, endogenous NFAT” value in [14] is “partially blocked”.

The values above are taken from US20040002117A1 (priority 1998, published 2004).
